Source: patent publication US8546390B2, “6-(pyrrolopyridinyl) pyrimidin-2-ylamine derivatives and the use thereof for the treatment of cancer and AIDS” (Merck Patent GmbH, priority 2008, dated 2013)

These molecules were tested against T1, PDK1 (Homo sapiens, UniProt O15530) (assay: Test for the inhibition of PDK1 (flashplate, 33P-ATP)). Conditions: not given.
T1 construct: His6 (N)
T1 sequence (O15530 51-556): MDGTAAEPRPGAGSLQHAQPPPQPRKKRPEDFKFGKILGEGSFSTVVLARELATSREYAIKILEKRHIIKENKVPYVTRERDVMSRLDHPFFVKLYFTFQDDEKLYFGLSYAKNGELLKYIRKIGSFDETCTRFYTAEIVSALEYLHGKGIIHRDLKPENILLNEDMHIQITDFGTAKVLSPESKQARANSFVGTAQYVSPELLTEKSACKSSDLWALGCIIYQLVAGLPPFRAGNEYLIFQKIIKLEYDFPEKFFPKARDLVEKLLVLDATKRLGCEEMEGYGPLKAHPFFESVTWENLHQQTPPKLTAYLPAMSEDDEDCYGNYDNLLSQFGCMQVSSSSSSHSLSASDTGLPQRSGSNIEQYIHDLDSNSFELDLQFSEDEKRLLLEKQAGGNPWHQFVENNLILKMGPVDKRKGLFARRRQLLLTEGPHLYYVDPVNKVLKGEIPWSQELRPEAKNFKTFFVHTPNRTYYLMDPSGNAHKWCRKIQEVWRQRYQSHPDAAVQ
Format: biochemical
Protocol: NO.: 1, (400 Nm), 4 μm ATP (with 0.2 μCi of ^33P-ATP/well) and the test substance in 50 μl of conventional experimental solution per well are incubated at 30° C. for 60 min. The test substances are employed in corresponding concentrations (if desired in a dilution series). The control is carried out without test substance. The reaction is stopped using standard methods and washed. The activity of the kinase is measured via the incorporated radioactivity in top count. In order to determine the non-specific kinase reaction (blank value), the experimental batches are carried out in the presence of 100 nM staurosporin.
The radioactivity (decompositions per minute) of the blank value (no use of test substance in the presence of staurosporin) is subtracted from all other radioactivity values. The controls (kinase activity without test substance) are set equal to 100 percent and all other radioactivity values (after subtracting the blank value) are expressed set in relation thereto (for example in % of the control).

Molecule	IC50
CCc1cc(-c2c[nH]c3ncc(-c4cn[nH]c4)cc23)nc(N)n1 [Compound A60, 4-Ethyl-6-[5-(1H-pyrazol-4-yl)-1H-pyrrolo[2,3-b]pyridin-3-yl]pyrimidin-2-ylamine]	10 to 1000 nM

Same assay, conditions: His6-PDK1(Δ1-50) 3.4 nM; 30° C., 60 min; read-out: IC50 PDK1

Molecule	IC50
4-(3-aminopropyl)-6-[5-(1-methyl-1H-pyrazol-4-yl)-1H-pyrrolo[2,3-b]pyridin-3-yl]pyrimidin-2-ylamine [Compound A42]	10 to 1000 nM
NCCCc1cc(-c2c[nH]c3ncccc23)nc(N)n1 [Compound A16, 4-(3-Aminopropyl)-6-(1H-pyrrolo[2,3-b]pyridin-3-yl)pyrimidin-2-ylamine]	10 to 1000 nM
CCc1cc(-c2c[nH]c3ncc(Br)cc23)nc(N)n1 [Compound A32]	10 to 1000 nM
NCCCc1cc(-c2c[nH]c3ncc(-c4ccco4)cc23)nc(N)n1 [Compound A43, 4-(3-Aminopropyl)-6-(5-furan-2-yl-1H-pyrrolo[2,3-b]pyridin-3-yl)pyrimidin-2-ylamine]	10 to 1000 nM
CCc1cc(-c2c[nH]c3ncc(-c4cnn(C)c4)cc23)nc(N)n1 [Compound A45, 4-ethyl-6-[5-(1-methyl-1H-pyrazol-4-yl)-1H-pyrrolo[2,3-b]pyridin-3-yl]pyrimidin-2-ylamine]	10 to 1000 nM
CCc1cc(-c2c[nH]c3ncc(-c4ccc(N)nc4)cc23)nc(N)n1 [Compound A48, 4-[5-(6-Aminopyridin-3-yl)-1H-pyrrolo-[2,3-b]pyridin-3-yl]-6-ethylpyrimidin-2-ylamine]	10 to 1000 nM
CCc1cc(-c2c[nH]c3ncc(-c4ccco4)cc23)nc(N)n1 [Compound A49, 4-Ethyl-6-(5-furan-2-yl-1H-pyrrolo[2,3-b]pyridin-3-yl)pyrimidin-2-ylamine]	10 to 1000 nM
CCc1cc(-c2c[nH]c3ncc(-c4cnn(CCOC)c4)cc23)nc(N)n1 [Compound A56, 4-Ethyl-6-{5-[1-(2-methoxyethyl)-1H-pyrazol-4-yl]-1H-pyrrolo[2,3-b]pyridin-3-yl}pyrimidin-2-ylamine]	10 to 1000 nM
CCc1cc(-c2c[nH]c3ncc(-c4cnn(CC(C)C)c4)cc23)nc(N)n1 [Compound A66, 4-Ethyl-6-[5-(1-isobulyl-1H-pyrazol-4-yl)-1H-pyrrolo[2,3-b]pyridin-3-yl]-pyrimidin-2-ylamine]	10 to 1000 nM

The molecules below were run on A2780 (ovary) (assay: Inhibition of the proliferation/vitality of tumour cells (Alamar Blue test)). Conditions: Homo sapiens, 96 h, A2780 ovary cell line, 4 days cultivation with test substance.
Format: cell-based
Protocol: In the present experiment description, the inhibition of tumour cell proliferation/tumour cell vitality by active ingredients is described. The cells are sown in a suitable cell density in microtitre plates (96-well format) and the test substances are added in the form of a concentration series. After four further days of cultivation in serum-containing medium, the tumour cell proliferation/tumour cell vitality can be determined by means of an Alamar Blue test system.
The cells are cultivated in medium. At intervals of several days, the cells are detached from the culture dishes with the aid of trypsin solution and sown in suitable dilution in fresh medium. The cells are cultivated at 37° Celsius and 10% CO2.
A defined number of cells (for example 2000 cells) per culture/well in a volume of 180 μl of culture medium are sown in microtitre plates (96 well cell-culture plates) using a multichannel pipette. The cells are subsequently cultivated in a CO2 incubator (37° C. and 10% CO2).
The test substances are dissolved, for example, in DMSO and subsequently employed in corresponding concentration (if desired in a dilution series) in the cell culture medium. The dilution steps can be adapted depending on the efficiency of the active ingredients and the desired spread of the concentrations. Cell culture medium is added to the test substances in corresponding concentrations. The addition of the test substances to the cells can take place on the same day as the sowing of the cells. To this end, in each case 20 μl of substance solution from the predilution plate are added to the cultures/wells. The cells are cultivated for a further 4 days at 37° Celsius and 10% CO2.
In each case, 20 μl of Alamar Blue reagent are added per well, and the microtitre plates are incubated, for example, for a further seven hours in a CO2 incubator (at 37° C. and 10% CO2). The plates are measured in a reader with a fluorescence filter at a wavelength of 540 nm. The plates can be shaken gently immediately before the measurement.
The absorbance value of the medium control (no cells and test substances used) is subtracted from all other absorbance values. The controls (cells without test substance) are set equal to 100 percent, and all other absorbance values are set in relation thereto (for example in % of control): Calculation:
IC50 values (50% inhibition) are determined with the aid of statistics programs, such as, for example, RS1.

Molecule	IC50
CCCCc1cc(-c2c[nH]c3ncccc23)nc(N)n1 [Compound A1, 4-butyl-6-(1H-pyrrolo[2,3-b]pyridin-3-yl)pyrimidin-2-ylamine]	10 to 1000 nM
Nc1nc(-c2ccccc2)cc(-c2c[nH]c3ncccc23)n1 [Compound A2, 4-Phenyl-6-(1H-pyrrolo[2,3-b]pyridin-3-yl)pyrimidin-2-ylamine]	10 to 1000 nM
CCCc1cc(-c2c[nH]c3ncccc23)nc(N)n1 [Compound A3, 4-Propyl-6-(1H-pyrrolo[2,3-b]pyridin-3-yl)pyrimidin-2-ylamine]	10 to 1000 nM
CCc1cc(-c2c[nH]c3ncccc23)nc(N)n1 [Compound A5, 4-ethyl-6-(1H-pyrrolo[2,3-b]pyridin-3-yl)pyrimidin-2-ylamine]	10 to 1000 nM
CCCCCc1cc(-c2c[nH]c3ncccc23)nc(N)n1 [Compound A6, 4-Pentyl-6-(1H-pyrrolo[2,3-b]pyridin-3-yl)pyrimidin-2-ylamine]	1000 to 10000 nM
CCCC1CCC(c2cc(-c3c[nH]c4ncccc34)nc(N)n2)CC1 (stereo not shown) [Compound A8]	1000 to 10000 nM
